Our source for the T/C values is PubChem BioAssay AID248 (DTP/NCI, 2004).

The test system of the assay is L1210 leukemia ip in BDF1 mice, survival T/C. In words: NCI In Vivo Anticancer Drug Screen. Data for tumor model L1210 Leukemia (intraperitoneal) in B6D2F1 (BDF1) mice. Conditions: endpoint: mean survival time, higher = longer survival. The essentials:
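Tumor cells were implanted, animals were treated, and survival was followed. The result divides the treated measurement by the vehicle-control measurement.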

The mark [1] stands for this setting: dose: 100.0 mg/kg/injection, schedule: Q01DX009 (ip), vehicle: saline with Tween-80.
Setting [2] is: dose: 100.0 mg/kg/injection, schedule: Q04DX003 (ip), vehicle: Klucel (hydroxypropylcellulose) (HPC).
Setting [3] is: dose: 200.0 mg/kg/injection, schedule: Q01DX009 (ip), vehicle: saline with Tween-80.
[4] abbreviates: dose: 200.0 mg/kg/injection, schedule: Q04DX003 (ip), vehicle: Klucel (hydroxypropylcellulose) (HPC).
The mark [5] stands for this setting: dose: 400.0 mg/kg/injection, schedule: Q01DX009 (ip), vehicle: saline with Tween-80.
[6] abbreviates: dose: 400.0 mg/kg/injection, schedule: Q04DX003 (ip), vehicle: Klucel (hydroxypropylcellulose) (HPC).
Setting [7] is: dose: 100.0 mg/kg/injection, schedule: Q01DX009 (ip), vehicle: saline.
The mark [8] stands for this setting: dose: 200.0 mg/kg/injection, schedule: Q01DX009 (ip), vehicle: saline.
Where [9] appears, read: dose: 100.0 mg/kg/injection, schedule: Q01DX001 (ip), vehicle: carboxymethylcellulose (CMC).
Setting [10] is: dose: 200.0 mg/kg/injection, schedule: Q01DX001 (ip), vehicle: carboxymethylcellulose (CMC).
Setting [11] is: dose: 400.0 mg/kg/injection, schedule: Q01DX001 (ip), vehicle: carboxymethylcellulose (CMC).
The mark [12] stands for this setting: dose: 100.0 mg/kg/injection, schedule: Q01DX009 (ip), vehicle: Klucel (hydroxypropylcellulose) (HPC).
The mark [13] stands for this setting: dose: 200.0 mg/kg/injection, schedule: Q01DX009 (ip), vehicle: Klucel (hydroxypropylcellulose) (HPC).
Where [14] appears, read: dose: 400.0 mg/kg/injection, schedule: Q01DX009 (ip), vehicle: Klucel (hydroxypropylcellulose) (HPC).

SMILES strings stand for the structures. Where “and” joins values, the source holds several entries; their conditions need not be identical. Identical values can stand only once. Inconclusive results and toxic doses are left out.

For `ClC12CCCC3CCCC(CCC1)C32` (stereo unspecified), the T/C by setting is: under setting [1], 101 % of control; under setting [2], 103 % of control; under setting [3], 90 % of control; under setting [4], 97 % of control; under setting [5], 89 % of control; under setting [6], 96 % of control.

With `CC(C)N(C(=O)Nc1cccc(F)c1)c1ccccc1`, the T/C reads like this: (dose: 100.0 mg/kg/injection, schedule: Q01DX009 (ip), vehicle: gum acacia) 96 % of control; (dose: 200.0 mg/kg/injection, schedule: Q01DX009 (ip), vehicle: gum acacia) 96 % of control; (dose: 400.0 mg/kg/injection, schedule: Q01DX009 (ip), vehicle: gum acacia) 90 % of control.

With `CCc1c[n+]([O-])c(C)cc1[N+](=O)[O-]`, the T/C by setting is: under setting [7], 108 % of control; (dose: 100.0 mg/kg/injection, schedule: Q04DX003 (ip), vehicle: saline) 101 % of control; under setting [8], 101 % of control; (dose: 200.0 mg/kg/injection, schedule: Q04DX003 (ip), vehicle: saline) 122 % of control; (dose: 400.0 mg/kg/injection, schedule: Q04DX003 (ip), vehicle: saline) 95 % of control.

For `CC(CN(C)C)CN1c2ccccc2CCc2ccccc21` (stereo unspecified), the T/C (dose: 4.37 mg/kg/injection, schedule: Q01DX009 (ip), vehicle: saline) is 101 % of control; the T/C (dose: 8.75 mg/kg/injection, schedule: Q01DX009 (ip), vehicle: saline) is 101 % of control; the T/C (dose: 17.5 mg/kg/injection, schedule: Q01DX009 (ip), vehicle: saline) is 98 % of control; the T/C (dose: 17.5 mg/kg/injection, schedule: Q04DX003 (ip), vehicle: saline) is 102 % of control; the T/C (dose: 35.0 mg/kg/injection, schedule: Q01DX009 (ip), vehicle: saline) is 107 % of control; the T/C (dose: 35.0 mg/kg/injection, schedule: Q04DX003 (ip), vehicle: saline) was 102 % of control. The T/C (dose: 70.0 mg/kg/injection, schedule: Q04DX003 (ip), vehicle: saline) was 104 % of control.

Turning to `O=S(=O)(CCO)CCS(=O)(=O)CCO`, the T/C is 92 % of control (dose: 75.0 mg/kg/injection, schedule: Q01DX009 (ip), vehicle: carboxymethylcellulose (CMC)); 102 % of control (dose: 150.0 mg/kg/injection, schedule: Q01DX009 (ip), vehicle: carboxymethylcellulose (CMC)); 92 % of control (dose: 300.0 mg/kg/injection, schedule: Q01DX009 (ip), vehicle: carboxymethylcellulose (CMC)).

Turning to `ClCCN(CCCl)c1ccc(C=Nc2ccc(/C=C\c3ccnc4ccccc34)cc2)cc1`, the T/C runs as follows: (dose: 100.0 mg/kg/injection, schedule: Q01DX001 (ip), vehicle: other) 96 % of control; (dose: 200.0 mg/kg/injection, schedule: Q01DX001 (ip), vehicle: other) 94 % of control; (dose: 400.0 mg/kg/injection, schedule: Q01DX001 (ip), vehicle: other) 94 % of control.

As for `CCC[Si](C)(C)C`, the T/C runs as follows: under setting [9], 94 % of control; under setting [10], 96 % of control; under setting [11], 89 % of control.

Take `CN(C)C(=S)NN`: the T/C is, setting by setting: (dose: 1.56 mg/kg/injection, schedule: Q01DX009 (ip), vehicle: saline with Tween-80) 111 % of control; (dose: 3.12 mg/kg/injection, schedule: Q01DX009 (ip), vehicle: saline with Tween-80) 117 % of control.

For the compound `CSc1cc2c(cc1NC(C)=O)C(=O)c1cc(F)ccc1-2`, the T/C reads like this: under setting [9], 98 % of control; under setting [10], 101 % of control; under setting [11], 95 % of control.

As for `CCOC(=N)CC(=O)OCC`, the T/C runs as follows: (dose: 50.0 mg/kg/injection, schedule: Q01DX001 (ip), vehicle: saline) 101 % of control and 110 % of control; (dose: 89.0 mg/kg/injection, schedule: Q01DX001 (ip), vehicle: saline) 101 % of control; (dose: 100.0 mg/kg/injection, schedule: Q01DX001 (ip), vehicle: saline) 104 % of control and 113 % of control; (dose: 133.0 mg/kg/injection, schedule: Q01DX001 (ip), vehicle: saline) 101 % of control; (dose: 200.0 mg/kg/injection, schedule: Q01DX001 (ip), vehicle: saline) 95 % of control and 104 % of control and 231 % of control; (dose: 300.0 mg/kg/injection, schedule: Q01DX001 (ip), vehicle: saline) 98 % of control. Further, the T/C (dose: 400.0 mg/kg/injection, schedule: Q01DX001 (ip), vehicle: saline) is 95 % of control and 101 % of control.

Consider `NC(=O)N/N=C/Cc1ccc2c(c1)OCO2`, for which the T/C by setting is: under setting [9], 97 % of control; under setting [10], 87 % of control; under setting [11], 92 % of control.

Consider `O=C1CCCN1C(=O)c1ccccc1`, for which the T/C is 101 % of control under setting [1], 95 % of control under setting [3] and 95 % of control under setting [5].

For `O=c1ccc2c(-c3ccccc3O)c3ccc(O)cc3oc-2c1`, the T/C was 93 % of control under setting [2], 94 % of control under setting [4] and 92 % of control under setting [6].

Consider `CCc1ccccc1NC(=O)N1CCN(C)CC1`, for which the T/C runs as follows: under setting [7], 104 % of control; under setting [8], 92 % of control.

With `c1ccc2c(c1)ccc1c3c([nH]c12)CCCC3`, the T/C was 88 % of control under setting [9], 98 % of control under setting [10] and 88 % of control under setting [11].

`Oc1ccccc1/C=N/Sc1ccccc1.Oc1ccccc1/C=N/Sc1ccccc1.[Cl][Pd][Cl]`: the T/C is 90 % of control (dose: 12.5 mg/kg/injection, schedule: Q04DX002 (ip), vehicle: Klucel (hydroxypropylcellulose) (HPC)); 101 % of control (dose: 25.0 mg/kg/injection, schedule: Q04DX002 (ip), vehicle: Klucel (hydroxypropylcellulose) (HPC)); 111 % of control (dose: 50.0 mg/kg/injection, schedule: Q04DX002 (ip), vehicle: Klucel (hydroxypropylcellulose) (HPC)).

For the compound `O=S(=O)(c1ccc(Nc2nc(Cl)nc(Cl)n2)cc1)N(CCCl)CCCl`, the T/C is, setting by setting: under setting [12], 103 % of control; under setting [13], 104 % of control; under setting [14], 107 % of control.

Turning to `COc1ccc(OC(C)=O)c2c1C(=O)OC(C)C2NC(=O)C(C)NC(C)=O` (stereo unspecified), the T/C is, setting by setting: (dose: 12.5 mg/kg/injection, schedule: Q04DX002 (ip), vehicle: saline with Tween-80) 103 % of control; (dose: 25.0 mg/kg/injection, schedule: Q04DX002 (ip), vehicle: saline with Tween-80) 107 % of control; (dose: 50.0 mg/kg/injection, schedule: Q04DX002 (ip), vehicle: saline with Tween-80) 100 % of control.

Turning to `CC12C=CC(CC1)C2OC(=O)c1ccccc1C(=O)O` (stereo unspecified), the T/C was 95 % of control under setting [12]; 94 % of control under setting [2]; 97 % of control under setting [13]; 108 % of control under setting [4]; 92 % of control under setting [14]; 92 % of control under setting [6].

In the case of `Nc1ncnc2cc[nH]c12`, the T/C was 102 % of control and 104 % of control (dose: 88.0 mg/kg/injection, schedule: Q01DX001 (ip), vehicle: carboxymethylcellulose (CMC)); 96 % of control and 104 % of control (dose: 133.0 mg/kg/injection, schedule: Q01DX001 (ip), vehicle: carboxymethylcellulose (CMC)); 102 % of control and 106 % of control under setting [10].

Consider `O=C(CCc1ccc(O)cc1)N/N=C/c1ccc2c(c1)OCO2`, for which the T/C is, setting by setting: under setting [3], 97 % of control; under setting [5], 87 % of control.
